Here are results for 31 compounds from patent US5962533A, “Hydroxy polyamines” (priority 1996, dated 1999).

Series [1] concerns polyamine transport apparatus. Description: Competition with radiolabeled spermidine for uptake into L1210 cells (Ki). The class given is cell-based, Murine. On the procedure:
The same cell line was utilized to evaluate the tetraamines's competition with radiolabeled spermidine for the polyamine uptake apparatus (Ki). The Ki values here are the concentrations of drugs required to inhibit the uptake of radioactive spermidine transport by 50% (Table 1).
Uptake Determinations. The polyamine derivatives were studied for their ability to compete with [^3 H]SPD or [^14 C]SPD for uptake into L1210 leukemia cells in vitro. Cell suspensions were incubated in 1 ml of RPMI-1640 containing 1, 2, 4, 6, 8 and 10 μm radiolabeled SPD alone or with the additional presence of 10, 25 and 50 μm polyamine analogue for 20 minutes at 37° C. At the end of the incubation period, tubes were centrifuged at 900 g for 5 minutes at 0-4° C. The pellet was washed twice with 5 ml of cold RPMI-1640 containing 1 mm SPD, dissolved in 200 μl of 1N NaOH at 60° C. for 1 hour, and neutralized with 1N HCl. The material was transferred to a vial for scintillation counting.

Series [2] relates to castor oil-induced diarrhea. Description: Castor oil-induced diarrhea. The class given is in vivo, rat. The settings on record: rat; for stool output / diarrhea during 6 hour assay (FIG. 8): subcutaneous injection 30 minutes before castor oil 5 ml/kg. The text has this:
Castor Oil-Induced Diarrhea. Male Sprague-Dawley rats (350-400 g) were fasted overnight in hanging wire cages and allowed free access to water.

Series [3] in a line: Acute toxicity, single intraperitoneal injection. Particulars: mouse, in vivo, ip.
A short description of series [4]: Protonation state at physiological pH assumed from measured pKa values. Particulars: physiological pH of 7.2. Format: physicochemical. On the procedure:
All of the non-aromatic, non-trifluoroethylated tetraamines are largely in the form of the tetracation at the physiological pH of 7.2. The spermine analogues (13-16 and 34) and the homospermine analogues and homologues (18-26, 29 and 31-33) should be 85 and 97%, respectively, in the form of the tetracations. The norspermine analogues (9-12) should be at least 74% in the form of the tetracations. […] Thus, the calculation of atomic charges and conformational search of these analogues were carried out based on the anticipated protonated structures.

Setting [5] is: tetraamine analogues, L1210 cells, radiolabeled spermidine uptake, read-out: Ki, actual (Table 1).
[6] abbreviates: triamine analogues, bioassay results not in model data set, read-out: Ki, Actual (Table 2).

Where two headings read alike, the source gives them in different places.

Regarding `C(CCNCCCCNC12CC3CC(CC(C3)C1)C2)CNCCCCNC12CC3CC(CC(C3)C1)C2` [BAHSPM], the Ki (in general, a measure of affinity in units of concentration, obtained from inhibition or displacement) in series [1] (setting [5]) is 2 µM.

For `CCNCCCCNCCCCNCCCNCC` [DE(3,4,4)], in series [1] (setting [5]), the Ki was 8 µM.

Regarding `CCNCCCCNCCCNCCCCNCC` [DE(4,3,4)], the Ki in series [1] (setting [5]) was 4 µM.

`CCNCCCCNCCCCCNCCCCNCC` [DE(4,5,4)]: the Ki in series [1] (setting [5]) was 6 µM.

In the case of `CCNCCCCNCCCCNCC` [DEHSPD], the Ki in series [1] (setting [6]) was 115 µM.

Regarding `CCNCCCNCCCNCC` [DENSPD], the Ki in series [1] (setting [6]) turned out to be 200 µM.

As to `CCNCCCNCCCNCCCNCC` [DENSPM, Diethylnorspermine], the anti-diarrheal activity entry in series [2] (40 mg/kg) is reported as “far less active than the homospermine compounds”. In addition, in series [2], the “stool output / diarrhea during 6 hour assay (FIG. 8)” value is “became diarrheal during the 6 hour assay”. For the same compound, the Ki in series [1] (setting [5]) worked out at 17 µM. Moreover, the LD50 – broadly, the dose at which mortality reaches 50% – in series [3] worked out at 325 mg/kg.

On to `CCNCCCCNCCCNCC` [DESPD], for which the inhibition constant (Ki) in series [1] (setting [6]) is 19.3 µM.

Take `CCNCCCNCCCCNCCCNCC` [DESPM]: in series [1] (setting [5]), the Ki amounted to 1.6 µM.

Take `CC(C)NCCCCNCCCCNCCCCNC(C)C` [DIPHSPM]: the Ki in series [1] (setting [5]) came out at 8.1 µM.

With `CC(C)NCCCNCCCNCCCNC(C)C` [DIPNSPM], the Ki in series [1] (setting [5]) is 40 µM.

Regarding `CNCCCCNCCCCNCCCCNC` [DMHSPM], the Ki in series [1] (setting [5]) turned out to be 0.97 µM.

Turning to `CNCCCNCCCNCCCNC` [DMNSPM], the Ki in series [1] (setting [5]) turned out to be 5.6 µM.

As to `CNCCCNCCCCNCCCNC` [DMSPM], the Ki in series [1] (setting [5]) came to 1.1 µM.

As for `CCCNCCCNCCCNCCCNCCC` [DPNSPM], in series [2] (15 mg/kg), the anti-diarrheal activity result is “far less active than the homospermine compounds”. Moreover, the “stool output / diarrhea during 6 hour assay (FIG. 8)” value in series [2] is listed as “became diarrheal during the 6 hour assay”.

With `CCCNCCCNCCCCNCCCNCCC` [DPSPM], the Ki in series [1] (setting [5]) was 2.3 µM.

Regarding `CC(C)(C)NCCCCNCCCCNCCCCNC(C)(C)C` [DTBHSPM], in series [1] (setting [5]), the Ki came out at 56 µM.

For the compound `CCNCCCCNCCCCNCCCCNC(C)(C)C` [ETBHSPM], the Ki in series [1] (setting [5]) is 3 µM.

Consider `FC(F)(F)CNCCCNCCCCNCCCNCC(F)(F)F` [FDESPM, N^1,N^12-bis(2,2,2-trifluoroethyl)spermine], for which the protonation state entry in series [4] was “almost exclusively in the form of the internal dication”. Also, in series [1] (setting [5]), the Ki was found to be 285 µM.

With `NCCCCNCCCCN` [HSPD], the Ki in series [1] (setting [6]) stood at 3.5 µM.

`NCCCCNCCCCNCCCCN` [HSPM, homospermine]: the “stool output / diarrhea during 6 hour assay (FIG. 8)” value in series [2] was “became diarrheal during the 6 hour assay”.

With `CCNCCCCNCCCCNCCCCN` [MEHSPM, N^1 -ethylhomospermine], the Ki in series [1] (setting [5]) worked out at 1.1 µM.

Take `CCNCCCNCCCNCCCN` [MENSPM, N^1 -ethylnorspermine]: the Ki in series [1] (setting [5]) stood at 7.7 µM.

As for `NCCCNCCCN` [NSPD, norspermidine], the Ki in series [1] (setting [6]) is 8.4 µM.

As for `CCNCCCNCCCCN` [N^1 -MESPD], in series [1] (setting [6]), the Ki worked out at 8.6 µM.

As to `CCNCCCCNCCCN` [N^8 -MESPD], the Ki in series [1] (setting [6]) amounted to 7 µM.

As for `C(CCNC1CCNCC1)CNC1CCNCC1` [PIP(3,4,3)], the Ki in series [1] (setting [5]) worked out at 60.5 µM.

As for `C(CCNCC1CCNCC1)CNCC1CCNCC1` [PIP(4,4,4)], the Ki in series [1] (setting [5]) was 4.9 µM.

Consider `C(CCNCCC1CCNCC1)CNCCC1CCNCC1` [PIP(5,4,5)], for which the Ki in series [1] (setting [5]) turned out to be 18.1 µM.

Consider `c1cc(NCCCNc2ccncc2)ccn1` [PYR(3,3,3)], for which, in series [4], the protonation state result is recorded as “terminal dication”. In series [1] (setting [5]), the Ki was more than 500 µM.

In the case of `c1cc(CNCCCCNCc2ccncc2)ccn1` [PYR(4,4,4)], in series [4], the protonation state entry is listed as “almost exclusively in the form of the internal dication”. Also, the Ki in series [1] (setting [5]) was more than 500 µM.
